# Results published in paper PMC7914897, “Cytotoxic Potential of a-Azepano- and 3-Amino-3,4-SeCo-Triterpenoids” (International Journal of Molecular Sciences, 2021).
# Read-outs that look alike come from different tables or passages of the source.
# Columns and labels:
# RPMI-8226 (Leukemia) = test: NCI-60 screen (SRB, 48 h); conditions: Homo sapiens
# Melanoma subpanel = test: NCI-60 screen, subpanel; conditions: Homo sapiens
# HS 578T (Breast cancer) = test: NCI-60 screen (SRB, 48 h); conditions: Homo sapiens
# [1] = test system: A549/ATCC (NSC lung cancer); test: NCI-60 screen (SRB, 48 h); conditions: Homo sapiens
# CCRF-CEM (Leukemia) = test: NCI-60 screen (SRB, 48 h); conditions: Homo sapiens
# Leukemia subpanel = test: cells; conditions: Homo sapiens
# Prostate cancer subpanel = test: NCI-60 screen, subpanel; conditions: Homo sapiens
# [2] = test system: NCI-H322M (NSC lung cancer); test: NCI-60 screen (SRB, 48 h); conditions: Homo sapiens
# U251 (CNS cancer) = test: NCI-60 screen (SRB, 48 h); conditions: Homo sapiens
# SN12C (Renal cancer) = test: NCI-60 screen (SRB, 48 h); conditions: Homo sapiens
# Colon Cancer subpanel = test: NCI-60 screen, subpanel; conditions: Homo sapiens
# IGROV1 (Ovarian cancer) = test: NCI-60 screen (SRB, 48 h); conditions: Homo sapiens
# [3] = test system: NCI-H23 (NSC lung cancer); test: NCI-60 screen (SRB, 48 h); conditions: Homo sapiens
# [4] = test system: panel of approximately 60 cancer cell lines; test: NCI-60 screen (SRB, 48 h), full panel
# UACC-257 (Melanoma) = test: NCI-60 screen (SRB, 48 h); conditions: Homo sapiens
# Breast cancer subpanel = test: NCI-60 screen, subpanel; conditions: Homo sapiens
# OVCAR-3 (Ovarian cancer) = test: cells; conditions: Homo sapiens
# SK-MEL-2 (Melanoma) = test: NCI-60 screen (SRB, 48 h); conditions: Homo sapiens
# BT-549 (Breast cancer) = test: NCI-60 screen (SRB, 48 h); assay type: cell-based; conditions: Homo sapiens
# [5] = test system: NCI/ADR-RES (Ovarian cancer); test: NCI-60 screen (SRB, 48 h); conditions: Homo sapiens
# DU-145 (Prostate cancer) = test: NCI-60 screen (SRB, 48 h); conditions: Homo sapiens
# HCT-15 (Colon cancer) = test: NCI-60 screen (SRB, 48 h); conditions: Homo sapiens
# K-562 (Leukemia) = test: NCI-60 screen (SRB, 48 h); conditions: Homo sapiens
# LOX IMVI (Melanoma) = test: NCI-60 screen (SRB, 48 h); assay type: cell-based; conditions: Homo sapiens
# HT29 (Colon cancer) = test: NCI-60 screen (SRB, 48 h); conditions: Homo sapiens
# SK-MEL-28 (Melanoma) = test: NCI-60 screen (SRB, 48 h); conditions: Homo sapiens
# UO-31 (Renal cancer) = test: NCI-60 screen (SRB, 48 h); conditions: Homo sapiens
# [6] = test system: MDA-MB-31/ATCC (Breast cancer); test: NCI-60 screen (SRB, 48 h); conditions: Homo sapiens
compound,measurement,setting,value
"C=C(C)C1CCC2(CO)CCC3(C)C(CCC4C5(C)CCCNC(C)(C)C5CCC43C)C12 (stereo not drawn) [Compound 1, Azepanobetulin]",GI50,RPMI-8226 (Leukemia); RPMI-8226,1.94 µM
same,IC (TGI),"RPMI-8226 (Leukemia); RPMI-8226, 48 h, read-out: TGI",4.51 µM
same,CC50,"RPMI-8226 (Leukemia); RPMI-8226, read-out: LC50",> 100 µM
same,IC (TGI),"Melanoma subpanel; 48 h, read-out: TGI MG_MID",3.19 µM
same,GI50,Melanoma subpanel; read-out: GI50 MG_MID,1.64 µM
same,CC50,Melanoma subpanel; read-out: LC50 MG_MID,6.12 µM
same,GI50,HS 578T (Breast cancer),1.99 µM
same,IC (TGI),"HS 578T (Breast cancer); 48 h, read-out: TGI",4.79 µM
same,CC50,HS 578T (Breast cancer); read-out: LC50,31 µM
same,GI50,[1]; A549,1.73 µM
same,IC (TGI),"[1]; A549, 48 h, read-out: TGI",3.24 µM
same,CC50,"[1]; A549, read-out: LC50",6.08 µM
same,GI50,CCRF-CEM (Leukemia),2.07 µM
same,IC (TGI),"CCRF-CEM (Leukemia); 48 h, read-out: TGI",4.91 µM
same,CC50,CCRF-CEM (Leukemia); read-out: LC50,> 100 µM
same,IC (TGI),"Leukemia subpanel; 48 h, read-out: TGI MG_MID",4.3 µM
same,GI50,Leukemia subpanel; read-out: GI50 MG_MID,1.69 µM
same,CC50,Leukemia subpanel; read-out: LC50 MG_MID,> 100 µM
same,IC (TGI),"Prostate cancer subpanel; 48 h, read-out: TGI MG_MID",2.98 µM
same,GI50,Prostate cancer subpanel; read-out: GI50 MG_MID,2.98 µM
same,CC50,Prostate cancer subpanel; read-out: LC50 MG_MID,5.66 µM
same,GI50,[2],1.63 µM
same,IC (TGI),"[2]; 48 h, read-out: TGI",3.03 µM
same,CC50,[2]; read-out: LC50,5.64 µM
same,GI50,U251 (CNS cancer); U-251,1.65 µM
same,IC (TGI),"U251 (CNS cancer); U-251, 48 h, read-out: TGI",3.09 µM
same,CC50,"U251 (CNS cancer); U-251, read-out: LC50",5.76 µM
same,GI50,SN12C (Renal cancer),1.62 µM
same,IC (TGI),"SN12C (Renal cancer); 48 h, read-out: TGI",3.03 µM
same,CC50,SN12C (Renal cancer); read-out: LC50,5.69 µM
same,IC (TGI),"Colon Cancer subpanel; 48 h, read-out: TGI MG_MID",3.01 µM
same,GI50,Colon Cancer subpanel; read-out: GI50 MG_MID,1.51 µM
same,CC50,Colon Cancer subpanel; read-out: LC50 MG_MID,5.98 µM
same,GI50,IGROV1 (Ovarian cancer); IGROV-1,1.65 µM
same,IC (TGI),"IGROV1 (Ovarian cancer); IGROV-1, 48 h, read-out: TGI",3.26 µM
same,CC50,"IGROV1 (Ovarian cancer); IGROV-1, read-out: LC50",6.44 µM
same,GI50,[3]; NCI-H23,1.71 µM
same,IC (TGI),"[3]; NCI-H23, 48 h, read-out: TGI",3.39 µM
same,CC50,"[3]; NCI-H23, read-out: LC50",6.68 µM
same,Positive Cytostatic Effect (cell lines with percent growth 0 to 50 / total),[4]; 1 dose 10 µM,27/59
same,number of cancer cell lines the compound was active against,[4]; 1 dose 10 µM,28 cell lines
same,activity at 10 µM,"[4]; Homo sapiens, 48 h, read-out: Mean Growth, %",20.8%
same,activity at 10 µM,"[4]; Homo sapiens, 48 h, read-out: Range of Growth, %",-82.5 to 84.4%
same,IC (TGI),"[4]; Homo sapiens, 48 h, read-out: TGI MG_MID60, average over all cell lines",3.34 µM
same,GI50,"[4]; Homo sapiens, read-out: GI50 MG_MID60",1.7 µM
same,GI50,"[4]; Homo sapiens, read-out: GI50 against all human tumor cell lines",< 3 µM
same,GI50,UACC-257 (Melanoma); UACC-257,1.95 µM
same,IC (TGI),"UACC-257 (Melanoma); UACC-257, 48 h, read-out: TGI",3.73 µM
same,CC50,"UACC-257 (Melanoma); UACC-257, read-out: LC50",7.14 µM
same,IC (TGI),"Breast cancer subpanel; 48 h, read-out: TGI MG_MID",3.55 µM
same,GI50,Breast cancer subpanel; read-out: GI50 MG_MID,1.71 µM
same,CC50,Breast cancer subpanel; read-out: LC50 MG_MID,11.5 µM
same,GI50,OVCAR-3 (Ovarian cancer); OVCAR-3,1.66 µM
same,IC (TGI),"OVCAR-3 (Ovarian cancer); OVCAR-3, 48 h, read-out: TGI",3.13 µM
same,CC50,"OVCAR-3 (Ovarian cancer); OVCAR-3, read-out: LC50",5.91 µM
same,GI50,SK-MEL-2 (Melanoma); SK-MEL-2,1.84 µM
same,IC (TGI),"SK-MEL-2 (Melanoma); SK-MEL-2, 48 h, read-out: TGI",3.75 µM
same,GI50,BT-549 (Breast cancer); BT-549,1.79 µM
same,IC (TGI),"BT-549 (Breast cancer); BT-549, 48 h",3.46 µM
same,GI50,[5],1.63 µM
same,IC (TGI),"[5]; 48 h, read-out: TGI",3.18 µM
same,CC50,[5]; read-out: LC50,6.18 µM
same,GI50,DU-145 (Prostate cancer); DU-145,3.02 µM
same,IC (TGI),"DU-145 (Prostate cancer); DU-145, 48 h, read-out: TGI",3.02 µM
same,CC50,"DU-145 (Prostate cancer); DU-145, read-out: LC50",5.58 µM
same,GI50,HCT-15 (Colon cancer); HCT-15,1.39 µM
same,IC (TGI),"HCT-15 (Colon cancer); HCT-15, 48 h, read-out: TGI",2.77 µM
same,CC50,"HCT-15 (Colon cancer); HCT-15, read-out: LC50",5.52 µM
same,GI50,K-562 (Leukemia); K562,1.08 µM
same,IC (TGI),"K-562 (Leukemia); K562, 48 h, read-out: TGI",3.79 µM
same,CC50,"K-562 (Leukemia); K562, read-out: LC50",> 100 µM
same,IC (TGI),LOX IMVI (Melanoma); 48 h,3.03 µM
same,GI50,LOX IMVI (Melanoma); read-out: GI50,1.51 µM
same,GI50,HT29 (Colon cancer); HT-29,1.27 µM
same,IC (TGI),"HT29 (Colon cancer); HT-29, 48 h, read-out: TGI",2.85 µM
same,GI50,SK-MEL-28 (Melanoma); SK-MEL-28,1.62 µM
same,IC (TGI),"SK-MEL-28 (Melanoma); SK-MEL-28, 48 h, read-out: TGI",3.15 µM
same,CC50,"SK-MEL-28 (Melanoma); SK-MEL-28, read-out: LC50",6.13 µM
same,GI50,UO-31 (Renal cancer); UO-31,1.56 µM
same,IC (TGI),"UO-31 (Renal cancer); UO-31, 48 h, read-out: TGI",2.99 µM
same,CC50,"UO-31 (Renal cancer); UO-31, read-out: LC50",5.74 µM
same,GI50,[6],1.77 µM
same,IC (TGI),"[6]; 48 h, read-out: TGI",3.21 µM
same,CC50,[6]; read-out: LC50,5.8 µM
